One compound from ChEMBL document CHEMBL4376829, “Discovery and biological evaluation of vinylsulfonamide derivatives as highly potent, covalent TEAD autopalmitoylation inhibitors” (Eur J Med Chem, 2019) can be followed below.

For experiment [1], the target named is Transcriptional enhancer factor TEF-3 (Homo sapiens, UniProt Q15561). Description: Inhibition of N-terminal His6 tagged human TEAD4-YBD (217 to 434 residues) expressed in Escherichia coli C43 (DE3) cells assessed as reduction in autopalmitoylation at 800 nM preincubated for 2 hrs followed by palmitoyl alkyne-coenzyme A addition and measured after 30 mins by immunoblot analysis relative to control. (In general: A western blot detects proteins with antibodies after separation by electrophoresis.)

For experiment [2], the system named is Transcriptional enhancer factor TEF-3 (Homo sapiens), Q15561 [C335A]. Description: Binding affinity to TEAD4-YBD C335A mutant (unknown origin) assessed as change in melting temperature by SYPRO-dye based thermal shift assay.
The test system of experiment [3] is Transcriptional enhancer factor TEF-3 (Homo sapiens), Q15561 [C410A]. As to the kind of experiment: Binding affinity to TEAD4-YBD C410A mutant (unknown origin) assessed as change in melting temperature by SYPRO-dye based thermal shift assay.
Sequence of Transcriptional enhancer factor TEF-3 (Homo sapiens), Q15561 [C410A] (Q15561 whole entry C410A, the tested form may be a part): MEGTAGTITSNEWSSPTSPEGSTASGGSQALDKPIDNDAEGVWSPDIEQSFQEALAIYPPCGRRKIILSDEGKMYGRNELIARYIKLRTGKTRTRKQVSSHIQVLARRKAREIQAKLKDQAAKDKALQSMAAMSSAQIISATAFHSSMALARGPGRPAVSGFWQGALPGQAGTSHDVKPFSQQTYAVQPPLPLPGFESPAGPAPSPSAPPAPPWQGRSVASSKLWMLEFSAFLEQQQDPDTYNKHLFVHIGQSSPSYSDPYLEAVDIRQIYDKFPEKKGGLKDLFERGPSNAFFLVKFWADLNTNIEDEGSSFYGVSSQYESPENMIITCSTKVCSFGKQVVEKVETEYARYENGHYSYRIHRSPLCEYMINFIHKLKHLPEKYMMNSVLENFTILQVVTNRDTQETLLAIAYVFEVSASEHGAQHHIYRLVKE
Experiment [4] has as its target Serine/threonine-protein kinase TAO2 (Homo sapiens) (UniProt Q9UL54). Description: Inhibition of recombinant human TAO2 (1 to 320 residues) at 10 uM using myelin basic protein as substrate measured after 40 mins in presence of [gamm33P]ATP by scintillation counting method relative to control.
The target of experiment [5] is Tyrosine-protein kinase JAK2 (Homo sapiens) (UniProt O60674). Description: Inhibition of recombinant human JAK2 (808 to end residues) at 10 uM using KTFCGTPEYLAPEVRREPRILSEEEQEMFRDFDYIADWC as substrate measured after 40 mins in presence of [gamm33P]ATP by scintillation counting method relative to control.
The target of experiment [6] is Ribosomal protein S6 kinase alpha-2 (Homo sapiens) (UniProt Q15349). Description: Inhibition of full length recombinant human Rsk3 at 10 uM using KKKNRTLSVA as substrate after 40 mins in presence of [gamma33P]ATP by scintillation counting method relative to control.
Experiment [7] addresses Serine/threonine-protein kinase PLK1 (Homo sapiens) (UniProt P53350). Description: Inhibition of full length recombinant human Plk1 at 10 uM using casein as substrate after 40 mins in presence of [gamma33P]ATP by scintillation counting method relative to control.
Experiment [8] concerns the target Insulin-like growth factor 1 receptor (Homo sapiens) (UniProt P08069). As to the kind of experiment: Inhibition of recombinant human IGF1R (959 to end residues) at 10 uM using KKKSPGEYVNIEFG as substrate after 40 mins in presence of [gamma33P]ATP by scintillation counting method relative to control.
Experiment [9] concerns the target Tyrosine-protein kinase HCK (Homo sapiens) (UniProt P08631). Description: Inhibition of recombinant human Hck activated (230 to 497 residues) at 10 uM using GGMEDIYFEFMGGKKK as substrate after 40 mins in presence of [gamma33P]ATP by scintillation counting method relative to control.
For experiment [10], the target named is Rhodopsin kinase GRK7 (Homo sapiens) (UniProt Q8WTQ7). As to the kind of experiment: Inhibition of full length recombinant human GRK7 at 10 uM using casein as substrate after 40 mins in presence of [gamma33P]ATP by scintillation counting method relative to control.
Sequence of Rhodopsin kinase GRK7 (Homo sapiens) (Q8WTQ7 whole entry): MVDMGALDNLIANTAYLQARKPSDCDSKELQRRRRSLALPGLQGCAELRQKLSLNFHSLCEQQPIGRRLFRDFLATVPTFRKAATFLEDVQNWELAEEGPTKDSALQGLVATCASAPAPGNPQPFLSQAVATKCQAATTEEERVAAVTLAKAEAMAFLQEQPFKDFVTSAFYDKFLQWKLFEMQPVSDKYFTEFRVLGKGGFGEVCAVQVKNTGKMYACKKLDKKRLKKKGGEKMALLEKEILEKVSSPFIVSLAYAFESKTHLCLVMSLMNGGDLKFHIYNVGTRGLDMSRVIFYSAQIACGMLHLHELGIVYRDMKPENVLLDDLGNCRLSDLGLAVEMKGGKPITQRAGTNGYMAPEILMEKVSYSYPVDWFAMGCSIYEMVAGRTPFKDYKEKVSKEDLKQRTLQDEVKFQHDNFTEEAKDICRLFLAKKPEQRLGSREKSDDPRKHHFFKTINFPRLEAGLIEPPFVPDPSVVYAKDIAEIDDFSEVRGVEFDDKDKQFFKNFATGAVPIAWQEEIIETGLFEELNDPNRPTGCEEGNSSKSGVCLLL
Experiment [11] is filed under the species Homo sapiens. Description: Inhibition of full-length recombinant human PKBalpha S478G mutant at 10 uM using GRPRTSSFAEGKK as substrate after 40 mins by in presence of [gamma33P]ATP by scintillation counting method relative to control.
In experiment [12] the target is Ephrin type-B receptor 4 (Homo sapiens) (UniProt P54760). As to the kind of experiment: Inhibition of human EphB4 (561 to end residues) using poly (Glu, Tyr) 4:1 as substrate at 10 uM after 40 mins in presence of [gamma-33P]-ATP by scintillation counting relative to control.
Experiment [13] has as its target Epidermal growth factor receptor (Homo sapiens) (UniProt P00533). Description: Inhibition of recombinant human EGFR (696 to end residues) at 10 uM using poly(Glu, Tyr) as substrate measured after 40 mins in presence of [gamma33P]ATP by scintillation counting method relative to control.
For experiment [14], the target named is Serine/threonine-protein kinase NLK (Homo sapiens) (UniProt Q9UBE8). Description: Inhibition of recombinant human NLK (121 to end residues) at 10 uM using myelin basic protein as substrate measured after 40 mins in presence of [gamma33P]ATP by scintillation counting method relative to control.
Sequence of Serine/threonine-protein kinase NLK (Homo sapiens) (Q9UBE8 whole entry): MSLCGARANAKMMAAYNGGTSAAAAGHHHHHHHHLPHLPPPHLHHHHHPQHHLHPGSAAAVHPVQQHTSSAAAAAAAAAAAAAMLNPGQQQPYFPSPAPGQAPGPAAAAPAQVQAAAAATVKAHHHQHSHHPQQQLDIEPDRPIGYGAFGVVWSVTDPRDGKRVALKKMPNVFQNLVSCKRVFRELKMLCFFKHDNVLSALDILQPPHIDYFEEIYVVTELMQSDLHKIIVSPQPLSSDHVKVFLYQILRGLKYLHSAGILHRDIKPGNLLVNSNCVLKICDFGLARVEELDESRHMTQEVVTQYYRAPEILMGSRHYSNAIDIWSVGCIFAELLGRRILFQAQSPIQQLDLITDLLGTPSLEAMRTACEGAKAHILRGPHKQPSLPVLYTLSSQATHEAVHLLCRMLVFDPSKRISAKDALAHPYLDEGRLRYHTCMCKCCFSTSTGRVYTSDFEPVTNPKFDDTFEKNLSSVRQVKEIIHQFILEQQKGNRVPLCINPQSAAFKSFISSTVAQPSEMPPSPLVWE
In experiment [15] the target is Serine/threonine-protein kinase NIM1 (Homo sapiens) (UniProt Q8IY84). Description: Inhibition of recombinant human full length NIM1 at 10 uM using KKKVSRSGLYRSPSMPENLNRPR as substrate incubated for 40 mins in presence of [gamma-33P]-ATP by scintillation counting method relative to control.
For experiment [16], the target named is Myosin light chain kinase 2, skeletal/cardiac muscle (Homo sapiens) (UniProt Q9H1R3). As to the kind of experiment: Inhibition of recombinant full-length human MYLK2 at 10 uM using KKLNRTLSFAEPG as substrate measured after 40 mins in presence of [gamma33P]ATP by scintillation counting method relative to control.
Experiment [17] deals with Saccharomyces cerevisiae. As to the kind of experiment: Inhibition of recombinant fungi CK1 (2 to 298 residues) at 10 uM using KRRRALS(p)VAS as substrate incubated for 40 mins in presence of [gamma-33P]-ATP by scintillation counting method relative to control.
In experiment [18] the target is Cyclin-dependent kinase-like 4 (Homo sapiens) (UniProt Q5MAI5). As to the kind of experiment: Inhibition of human CDKL4 at 10 uM by radiometric method relative to control.
Experiment [19] concerns the target Serine/threonine-protein kinase MAK (Homo sapiens) (UniProt P20794). Description: Inhibition of recombinant full-length human MAK at 10 uM using RRRFRPASPLRGPPK as substrate measured after 120 mins in presence of [gamma33P]ATP by scintillation counting method relative to control.
Experiment [20] has as its target 5'-AMP-activated protein kinase catalytic subunit alpha-2 (Homo sapiens) (UniProt P54646). Description: Inhibition of recombinant full length human AMPKalpha2 at 10 uM using AMARAASAAALARRR as substrate after 40 mins in presence of [gamma33P]ATP by scintillation counting method relative to control.
The target of experiment [21] is ALK tyrosine kinase receptor (Homo sapiens) (UniProt Q9UM73). Description: Inhibition of recombinant human ALK (1058 to end residues) at 10 uM using KKKSPGEYVNIEF as substrate after 40 mins in presence of [gamma33P]ATP by scintillation counting method relative to control.
Sequence of ALK tyrosine kinase receptor (Homo sapiens) (Q9UM73 19-1620 limits assumed): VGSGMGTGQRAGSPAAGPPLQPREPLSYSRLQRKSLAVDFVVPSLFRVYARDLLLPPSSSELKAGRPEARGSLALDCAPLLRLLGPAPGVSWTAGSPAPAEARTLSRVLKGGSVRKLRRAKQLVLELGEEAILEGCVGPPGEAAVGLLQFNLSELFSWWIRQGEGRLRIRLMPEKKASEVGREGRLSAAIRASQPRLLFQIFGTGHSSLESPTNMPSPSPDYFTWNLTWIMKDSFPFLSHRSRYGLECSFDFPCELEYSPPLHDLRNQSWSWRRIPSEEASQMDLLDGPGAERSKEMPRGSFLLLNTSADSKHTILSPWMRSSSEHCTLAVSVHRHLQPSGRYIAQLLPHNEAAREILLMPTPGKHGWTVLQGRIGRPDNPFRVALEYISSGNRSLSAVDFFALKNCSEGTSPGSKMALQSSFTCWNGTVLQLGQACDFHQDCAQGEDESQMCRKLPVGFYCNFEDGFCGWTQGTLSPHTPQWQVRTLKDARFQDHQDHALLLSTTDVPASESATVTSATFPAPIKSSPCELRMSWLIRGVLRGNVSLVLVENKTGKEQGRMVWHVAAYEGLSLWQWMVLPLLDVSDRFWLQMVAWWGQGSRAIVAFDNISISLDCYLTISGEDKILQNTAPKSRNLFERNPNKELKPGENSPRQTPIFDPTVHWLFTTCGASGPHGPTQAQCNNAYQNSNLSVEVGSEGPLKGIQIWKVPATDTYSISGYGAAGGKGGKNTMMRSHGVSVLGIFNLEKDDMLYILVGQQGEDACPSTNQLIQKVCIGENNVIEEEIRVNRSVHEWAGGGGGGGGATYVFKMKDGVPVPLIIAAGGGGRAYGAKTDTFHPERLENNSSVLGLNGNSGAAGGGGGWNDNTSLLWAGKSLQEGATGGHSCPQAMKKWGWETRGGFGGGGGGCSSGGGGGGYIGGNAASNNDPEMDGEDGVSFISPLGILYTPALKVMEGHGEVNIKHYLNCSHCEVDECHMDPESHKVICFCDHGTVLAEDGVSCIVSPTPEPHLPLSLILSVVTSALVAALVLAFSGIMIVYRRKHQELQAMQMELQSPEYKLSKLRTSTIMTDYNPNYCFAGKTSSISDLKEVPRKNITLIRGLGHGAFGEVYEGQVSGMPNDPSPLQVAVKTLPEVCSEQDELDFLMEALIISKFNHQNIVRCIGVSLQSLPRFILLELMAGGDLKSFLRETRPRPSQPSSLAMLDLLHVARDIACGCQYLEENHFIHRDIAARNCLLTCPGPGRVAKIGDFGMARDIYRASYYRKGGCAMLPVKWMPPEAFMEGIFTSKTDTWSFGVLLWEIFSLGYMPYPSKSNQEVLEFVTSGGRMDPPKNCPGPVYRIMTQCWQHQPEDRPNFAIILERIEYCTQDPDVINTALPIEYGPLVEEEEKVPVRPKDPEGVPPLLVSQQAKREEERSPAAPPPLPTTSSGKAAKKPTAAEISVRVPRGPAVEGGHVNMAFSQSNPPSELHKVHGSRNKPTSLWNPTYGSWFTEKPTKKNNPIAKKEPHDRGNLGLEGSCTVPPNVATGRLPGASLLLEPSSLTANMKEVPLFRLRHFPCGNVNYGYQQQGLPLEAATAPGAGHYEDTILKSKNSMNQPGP
For experiment [22], the target named is Activated CDC42 kinase 1 (Homo sapiens) (UniProt Q07912). Description: Inhibition of human ACK1 (1 to 389 residues) at 10 uM using EFPIYDFLPAKKK as substrate after 40 mins in presence of [gamma33P]ATP by scintillation counting method relative to control.
In experiment [23] the target is Myosin light chain kinase, smooth muscle (Homo sapiens) (UniProt Q15746). Description: Inhibition of recombinant human MLCK (1425 to 1771 residues) at 10 uM using […] as substrate measured after 40 mins in presence of [gamma33P]ATP by scintillation counting method relative to control.

Sequence of Serine/threonine-protein kinase PLK1 (Homo sapiens) (P53350 whole entry): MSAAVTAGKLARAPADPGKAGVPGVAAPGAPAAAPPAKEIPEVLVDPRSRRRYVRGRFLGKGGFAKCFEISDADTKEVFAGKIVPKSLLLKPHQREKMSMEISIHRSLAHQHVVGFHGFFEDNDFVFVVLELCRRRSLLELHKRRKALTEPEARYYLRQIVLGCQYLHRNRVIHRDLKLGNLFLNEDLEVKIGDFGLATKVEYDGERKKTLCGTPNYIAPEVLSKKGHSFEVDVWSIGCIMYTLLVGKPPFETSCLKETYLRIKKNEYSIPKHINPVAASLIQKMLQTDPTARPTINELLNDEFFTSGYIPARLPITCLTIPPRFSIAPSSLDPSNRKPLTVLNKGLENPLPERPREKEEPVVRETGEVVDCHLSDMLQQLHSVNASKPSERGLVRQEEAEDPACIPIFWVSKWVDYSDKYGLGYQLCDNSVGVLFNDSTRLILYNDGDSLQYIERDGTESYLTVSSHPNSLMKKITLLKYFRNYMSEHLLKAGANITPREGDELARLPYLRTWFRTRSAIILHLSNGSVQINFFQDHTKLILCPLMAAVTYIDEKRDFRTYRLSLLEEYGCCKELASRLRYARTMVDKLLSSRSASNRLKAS
Sequence of Serine/threonine-protein kinase TAO2 (Homo sapiens) (Q9UL54 whole entry, the tested form may be a part): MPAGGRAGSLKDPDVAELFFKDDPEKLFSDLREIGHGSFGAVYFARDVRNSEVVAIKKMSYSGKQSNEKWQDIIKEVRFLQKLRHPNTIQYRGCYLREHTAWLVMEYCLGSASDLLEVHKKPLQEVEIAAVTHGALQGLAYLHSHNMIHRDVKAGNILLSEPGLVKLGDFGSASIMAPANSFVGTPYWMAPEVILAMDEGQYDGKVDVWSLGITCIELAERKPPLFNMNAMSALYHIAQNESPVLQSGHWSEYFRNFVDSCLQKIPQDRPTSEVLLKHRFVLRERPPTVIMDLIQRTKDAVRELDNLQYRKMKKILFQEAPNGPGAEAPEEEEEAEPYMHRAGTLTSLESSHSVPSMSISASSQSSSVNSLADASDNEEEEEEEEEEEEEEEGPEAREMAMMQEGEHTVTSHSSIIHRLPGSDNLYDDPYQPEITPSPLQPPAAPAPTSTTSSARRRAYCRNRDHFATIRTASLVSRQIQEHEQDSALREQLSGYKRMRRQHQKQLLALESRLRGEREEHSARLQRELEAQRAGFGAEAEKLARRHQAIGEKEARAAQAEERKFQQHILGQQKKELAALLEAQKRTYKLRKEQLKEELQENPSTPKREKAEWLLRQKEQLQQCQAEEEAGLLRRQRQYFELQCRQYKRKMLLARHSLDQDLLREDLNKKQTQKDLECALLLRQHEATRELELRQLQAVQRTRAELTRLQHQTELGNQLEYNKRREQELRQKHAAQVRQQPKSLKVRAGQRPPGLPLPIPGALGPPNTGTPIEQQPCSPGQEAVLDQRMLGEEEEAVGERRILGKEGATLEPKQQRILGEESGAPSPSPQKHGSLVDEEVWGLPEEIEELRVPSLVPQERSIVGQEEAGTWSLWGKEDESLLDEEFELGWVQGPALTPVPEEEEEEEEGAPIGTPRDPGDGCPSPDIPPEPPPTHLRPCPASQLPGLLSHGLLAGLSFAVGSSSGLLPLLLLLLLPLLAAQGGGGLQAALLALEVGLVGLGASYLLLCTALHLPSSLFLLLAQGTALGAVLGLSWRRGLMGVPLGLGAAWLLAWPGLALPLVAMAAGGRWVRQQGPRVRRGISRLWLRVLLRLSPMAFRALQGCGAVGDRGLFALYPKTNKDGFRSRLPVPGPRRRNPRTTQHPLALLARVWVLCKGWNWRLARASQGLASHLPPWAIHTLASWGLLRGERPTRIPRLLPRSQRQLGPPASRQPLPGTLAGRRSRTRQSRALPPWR

`C=CS(=O)(=O)Nc1ccc(Cc2ccc3ccccc3c2)cc1`: the inhibition (in general, the change of the read-out against control, counted positive when it falls) in experiment [1] is 91.6%; in experiment [4], 22%; in experiment [5] it was 6%; in experiment [6] it was 9%; in [7], -10%; in experiment [8], -6%. Moreover, the inhibition in experiment [9] was determined as 3%; in experiment [10] it was 4%; in experiment [11], 9%; in [12], 8%; in experiment [13], 13%; in experiment [14], 2%. The inhibition in experiment [15] was -5%; in experiment [16], 6%; in [17], 5%; in experiment [18], -6%; in [19], -3%; in experiment [20] it was 5%. Besides, the inhibition in [21] turned out to be 0%; in experiment [22], 10%; in experiment [23], 5%. Also, the figures for the shift in melting temperature (ΔTm) in [2] and in experiment [3] were 5.2 °C and 7.3 °C, respectively.
